{"source": "patent US12679878B2", "about": "“CRF2 receptor agonists and their use in therapy” (SANOFI, priority 2020, dated 2026)", "key": {"human CRF2α receptor": {"target": "T1, human CRF2α receptor (Homo sapiens, UniProt Q13324)", "T1 construct": "expressed in transfected cells; host or cells: TeloHEAC", "T1 sequence (Q13324 1-411)": "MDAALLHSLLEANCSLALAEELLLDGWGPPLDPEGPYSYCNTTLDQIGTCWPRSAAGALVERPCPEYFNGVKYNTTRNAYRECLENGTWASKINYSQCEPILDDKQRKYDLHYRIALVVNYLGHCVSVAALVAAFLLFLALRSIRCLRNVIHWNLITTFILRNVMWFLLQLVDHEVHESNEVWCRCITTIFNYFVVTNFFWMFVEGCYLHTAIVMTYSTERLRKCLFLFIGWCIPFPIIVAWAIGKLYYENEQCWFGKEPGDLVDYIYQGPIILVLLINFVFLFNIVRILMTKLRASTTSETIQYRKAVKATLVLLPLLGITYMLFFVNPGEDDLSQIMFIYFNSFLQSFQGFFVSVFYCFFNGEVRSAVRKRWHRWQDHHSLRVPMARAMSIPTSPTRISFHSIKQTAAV", "test": "cAMP agonism at human CRF2 α receptor in TeloHEAC cells (Example 7)", "assay_type": "cell-based", "conditions": "cAMP HTRF, TeloHEAC cells stably expressing human CRF2 α", "summary_of_the_method": "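HTRF ratio 665/620 nm, read 1 h after lysis reagents, reports cAMP. Cells: thawed stocks, 2000/well, 30 min RT with compound in HBSS, 20 mM HEPES, 0 or 0.1% HSA, 2 mM IBMX. Activity normalised to UCN2 1000 nM = 100%; EC50 from half-maximal activation.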"}, "rat CRF2R α receptor": {"system": "rat CRF2R α receptor", "test": "cAMP agonism at rat CRF2R α receptor in A7R5 rat aortic smooth muscle cells (Example 8)", "assay_type": "cell-based", "conditions": "cAMP HTRF, A7R5 rat aortic smooth muscle cell line, 0% HSA", "procedure": "Cells were grown in a T175 culture flask placed at 37° C. to near confluence in medium (DMEM/10% FBS) and collected in 2 ml vials in cell culture medium containing 10% DMSO in a concentration of 10-50 million cells/ml. Each vial contained 1.8 ml cells. The vials were slowly frozen to −80° C. in isopropanol and then transferred in liquid nitrogen for storage. Prior to use, frozen cells were thawed quickly at 37° C. and washed (5 min at 900 rpm) with 20 ml cell buffer (1×HBSS; 20 mM HEPES; 0% or 0.1% HSA). Cells were resuspended in assay buffer (cell buffer plus 2 mM IBMX) and adjusted to a cell density of 1 million cells/ml. For measurement, 5 μl cells (final […]) and 5 μL of test compound were added to a 384-well plate, followed by incubation for 30 minutes at room temperature.\nThe CAMP content of cells was determined using a kit from Cisbio Corp. (cat. no. 62AM4PEC) based on HTRF (Homogenous Time Resolved Fluorescence). After addition of HTRF reagents diluted in lysis buffer (kit components), the plates were incubated for 1 h, followed by measurement of the fluorescence ratio at 665/620 nm. The percent activity value (E %) was calculated by setting 1000 nM of urocortin 2 (UCN2) as 100%. The in vitro potency of the compounds was quantified by determining the concentrations that caused 50% activation of maximal response (EC50).\nUsing the procedure described in Example 7, the activity of the compounds at the rat CRF2R α receptor was assessed. The A7R5 rat aortic smooth muscle cell line was used in this study."}, "[1]": {"conditions": "0% HSA, read-out: EC50 [nM], 0% HSA"}}, "note": "Where two headings read alike, the source gives them in different places. Starred links: 1 amine or outer side, 2 acyl side, 3 side chain; linkers in the order of their positions; H or OH if unused. Non-standard residues stand in square brackets, D forms with d. Residues, ends and D or L forms follow the SMILES beside them. Groups on a side chain read outwards from the residue. *: point of attachment. C18 diacid = O=C(O)CCCCCCCCCCCCCCCCC(=O)*; γGlu = O=C(O)[C@H](CCC(=O)[*:2])N[*:1]; Palmitoyl = CCCCCCCCCCCCCCCC(=O)*; AEEA = NCCOCCOCC(=O)O; Aib = CC(C)(N)C(=O)O", "data": [{"smiles": "CC[C@H](C)[C@H](N)C(=O)N[C@H](C(=O)N[C@@H](CC(C)C)C(=O)N[C@@H](CO)C(=O)N[C@@H](CC(C)C)C(=O)N[C@@H](CC(=O)O)C(=O)N[C@H](C(=O)N1CCC[C@H]1C(=O)N[C@H](C(=O)N[C@@H](CCCCN)C(=O)N[C@@H](CC(C)C)C(=O)N[C@@H](CCCCNC(=O)COCCOCCNC(=O)COCCOCCNC(=O)CC[C@H](NC(=O)CCCCCCCCCCCCCCCCC(=O)O)C(=O)O)C(=O)N[C@@H](CCC(N)=O)C(=O)N[C@H](C(=O)N[C@@H](CC(C)C)C(=O)N[C@@H](CC(C)C)C(=O)N[C@@H](CCC(=O)O)C(=O)N[C@@H](CCC(N)=O)C(=O)N[C@@H](C)C(=O)N[C@@H](CCCCN)C(=O)N[C@@H](CCC(N)=O)C(=O)N[C@@H](CCCCN)C(=O)NC(C)(C)C(=O)N[C@@H](CC(C)C)C(=O)N[C@@H](CCCCN)C(=O)N[C@@H](C)C(=O)N[C@@H](CCC(N)=O)C(=O)N[C@@H](C)C(=O)N[C@@H](CCC(=O)O)C(=O)N[C@H](C(=O)N[C@@H](CC(N)=O)C(=O)N[C@H](C(=O)N[C@@H](CCCNC(=N)N)C(=O)N[C@H](C(=O)N[C@@H](CC(C)C)C(=O)N[C@@H](CCC(=O)O)C(=O)N[C@@H](CCCNC(=N)N)C(=O)N[C@H](C(N)=O)C(C)C)[C@@H](C)CC)C(C)C)[C@@H](C)O)[C@@H](C)CC)[C@@H](C)CC)C(C)C)C(C)C", "note": "[compound 45] (H-IVLSLDVPIKLK([AEEA-AEEA-γGlu-C18 diacid])QILLEQAKQK[Aib]LKAQAETNVRILERV-NH2)", "values": [{"measurement": "EC50", "setting": "human CRF2α receptor; [1]", "result": 3.77, "unit": "nM"}, {"measurement": "EC50", "setting": "rat CRF2R α receptor", "result": 47.3, "unit": "nM"}]}, {"smiles": "CC[C@H](C)[C@H](NC(C)=O)C(=O)N[C@H](C(=O)N[C@@H](CC(C)C)C(=O)N[C@@H](CO)C(=O)N[C@@H](CC(C)C)C(=O)N[C@@H](CC(=O)O)C(=O)N[C@@H](C(=O)N1CCC[C@H]1C(=O)N[C@H](C(=O)N[C@@H](CCCCN)C(=O)N[C@@H](CC(C)C)C(=O)N[C@@H](CCCCNC(=O)COCCOCCNC(=O)COCCOCCNC(=O)CC[C@H](NC(=O)CCCCCCCCCCCCCCCCC(=O)O)C(=O)O)C(=O)N[C@@H](CCC(N)=O)C(=O)N[C@H](C(=O)N[C@@H](CC(C)C)C(=O)N[C@@H](CC(C)C)C(=O)N[C@@H](CCC(=O)O)C(=O)N[C@@H](CCC(N)=O)C(=O)N[C@@H](C)C(=O)N[C@@H](CCCNC(=N)N)C(=O)N[C@@H](CCC(N)=O)C(=O)N[C@@H](CCCCN)C(=O)NC(C)(C)C(=O)N[C@@H](CCC(N)=O)C(=O)N[C@@H](CCCNC(=N)N)C(=O)N[C@@H](CCC(=O)O)C(=O)N[C@@H](CCC(N)=O)C(=O)N[C@@H](C)C(=O)N[C@@H](CCC(=O)O)C(=O)N[C@@H](CCCCN)C(=O)N[C@@H](CC(N)=O)C(=O)N[C@@H](CCCCN)C(=O)N[C@@H](CCC(N)=O)C(=O)N[C@H](C(=O)N[C@@H](CC(C)C)C(=O)N[C@@H](CCC(=O)O)C(=O)N[C@@H](CCC(N)=O)C(=O)N[C@H](C(N)=O)C(C)C)[C@@H](C)CC)[C@@H](C)CC)[C@@H](C)CC)C(C)C)C(C)C", "note": "[compound 157] (Ac-IVLSLD[dV]PIKLK([AEEA-AEEA-γGlu-C18 diacid])QILLEQARQK[Aib]QREQAEKNKQILEQV-NH2)", "values": [{"measurement": "EC50", "setting": "human CRF2α receptor; [1]", "result": 0.12, "unit": "nM"}, {"measurement": "EC50", "setting": "human CRF2α receptor; 0.1% HSA, read-out: EC50 [nM], 0.1% HSA", "result": 2.53, "unit": "nM"}, {"measurement": "EC50", "setting": "rat CRF2R α receptor", "result": 1.14, "unit": "nM"}]}, {"smiles": "CC[C@H](C)[C@H](NC(C)=O)C(=O)N[C@H](C(=O)N[C@@H](CC(C)C)C(=O)N[C@@H](CO)C(=O)N[C@@H](CC(C)C)C(=O)N[C@@H](CC(=O)O)C(=O)N[C@@H](C(=O)N1CCC[C@H]1C(=O)N[C@H](C(=O)N[C@@H](CCC(=O)O)C(=O)N[C@@H](CC(C)C)C(=O)N[C@@H](CCCCNC(=O)COCCOCCNC(=O)COCCOCCNC(=O)CC[C@H](NC(=O)CCCCCCCCCCCCCCCCC(=O)O)C(=O)O)C(=O)N[C@@H](CCC(N)=O)C(=O)N[C@H](C(=O)N[C@@H](CC(C)C)C(=O)N[C@@H](CC(C)C)C(=O)N[C@@H](CCC(=O)O)C(=O)N[C@@H](CCC(N)=O)C(=O)N[C@@H](CCC(=O)O)C(=O)N[C@@H](CCCNC(=N)N)C(=O)N[C@@H](CCC(N)=O)C(=O)N[C@@H](CCCCN)C(=O)NC(C)(C)C(=O)N[C@@H](CCC(N)=O)C(=O)N[C@@H](CCCNC(=N)N)C(=O)N[C@@H](CCC(=O)O)C(=O)N[C@@H](CCC(N)=O)C(=O)N[C@@H](C)C(=O)N[C@@H](CCC(=O)O)C(=O)N[C@@H](CCCCN)C(=O)N[C@@H](CC(N)=O)C(=O)N[C@@H](CCCCN)C(=O)N[C@@H](CCC(N)=O)C(=O)N[C@H](C(=O)N[C@@H](CC(C)C)C(=O)N[C@@H](CCC(=O)O)C(=O)N[C@@H](CCC(N)=O)C(=O)N[C@H](C(N)=O)C(C)C)[C@@H](C)CC)[C@@H](C)CC)[C@@H](C)CC)C(C)C)C(C)C", "note": "[compound 162] (Ac-IVLSLD[dV]PIELK([AEEA-AEEA-γGlu-C18 diacid])QILLEQERQK[Aib]QREQAEKNKQILEQV-NH2)", "values": [{"measurement": "EC50", "setting": "rat CRF2R α receptor", "result": 48.6, "unit": "nM"}]}, {"smiles": "CC[C@H](C)[C@H](N)C(=O)N[C@H](C(=O)N[C@@H](CC(C)C)C(=O)N[C@@H](CO)C(=O)N[C@@H](CC(C)C)C(=O)N[C@@H](CC(=O)O)C(=O)N[C@@H](C(=O)N1CCC[C@H]1C(=O)N[C@H](C(=O)N[C@@H](Cc1c[nH]cn1)C(=O)N[C@@H](CC(C)C)C(=O)N[C@@H](CCCCNC(=O)COCCOCCNC(=O)COCCOCCNC(=O)CC[C@H](NC(=O)CCCCCCCCCCCCCCCCC(=O)O)C(=O)O)C(=O)N[C@@H](CCC(N)=O)C(=O)N[C@H](C(=O)N[C@@H](CC(C)C)C(=O)N[C@@H](CC(C)C)C(=O)N[C@@H](CCC(=O)O)C(=O)N[C@@H](CCC(N)=O)C(=O)N[C@@H](CCC(=O)O)C(=O)N[C@@H](CCCNC(=N)N)C(=O)N[C@@H](CCC(N)=O)C(=O)N[C@@H](CCCCN)C(=O)NC(C)(C)C(=O)N[C@@H](CCC(N)=O)C(=O)N[C@@H](CCCNC(=N)N)C(=O)N[C@@H](CCC(=O)O)C(=O)N[C@@H](CCC(N)=O)C(=O)N[C@@H](C)C(=O)N[C@@H](CCC(=O)O)C(=O)N[C@@H](CCCCN)C(=O)N[C@@H](CC(N)=O)C(=O)N[C@@H](CCCCN)C(=O)N[C@@H](CCC(N)=O)C(=O)N[C@H](C(=O)N[C@@H](CC(C)C)C(=O)N[C@@H](CCC(=O)O)C(=O)N[C@@H](CCC(N)=O)C(=O)N[C@H](C(N)=O)C(C)C)[C@@H](C)CC)[C@@H](C)CC)[C@@H](C)CC)C(C)C)C(C)C", "note": "[compound 163] (H-IVLSLD[dV]PIHLK([AEEA-AEEA-γGlu-C18 diacid])QILLEQERQK[Aib]QREQAEKNKQILEQV-NH2; N-terminus assumed)", "values": [{"measurement": "EC50", "setting": "rat CRF2R α receptor", "result": 1.5, "unit": "nM"}]}, {"smiles": "CCCCCCCCCCCCCCCC(=O)N[C@@H](CCC(=O)NCCCC[C@H](NC(=O)[C@H](CC(C)C)NC(=O)[C@H](CCCCN)NC(=O)[C@@H](NC(=O)[C@@H]1CCCN1C(=O)[C@H](NC(=O)[C@H](CC(=O)O)NC(=O)[C@H](CC(C)C)NC(=O)[C@H](CO)NC(=O)[C@H](CC(C)C)NC(=O)[C@@H](NC(=O)[C@@H](N)[C@@H](C)CC)C(C)C)C(C)C)[C@@H](C)CC)C(=O)N[C@@H](CCC(N)=O)C(=O)N[C@@H](CCCCN)C(=O)N[C@@H](CC(C)C)C(=O)N[C@@H](CC(C)C)C(=O)N[C@@H](CCCCN)C(=O)N[C@@H](CCC(N)=O)C(=O)N[C@@H](CCC(N)=O)C(=O)N[C@@H](CCCNC(=N)N)C(=O)N[C@@H](CCC(N)=O)C(=O)N[C@@H](CCCNC(=N)N)C(=O)N[C@@H](CCCCN)C(=O)N[C@@H](CCC(=O)O)C(=O)N[C@@H](CCCNC(=N)N)C(=O)N[C@@H](CCC(N)=O)C(=O)N[C@@H](CCC(N)=O)C(=O)N[C@@H](C)C(=O)N[C@@H](CCC(=O)O)C(=O)N[C@@H](CCCCN)C(=O)N[C@@H](CC(N)=O)C(=O)N[C@@H](CCCCN)C(=O)N[C@@H](CCCNC(=N)N)C(=O)N[C@H](C(=O)N[C@@H](CC(C)C)C(=O)N[C@@H](CCC(=O)O)C(=O)N[C@@H](CCCNC(=N)N)C(=O)N[C@H](C(N)=O)C(C)C)[C@@H](C)CC)C(=O)O", "note": "[compound 227] (H-IVLSLD[dV]PIKLK([γGlu-Palmitoyl])QKLLKQQRQRKERQQAEKNKRILERV-NH2)", "values": [{"measurement": "EC50", "setting": "rat CRF2R α receptor", "result": 0.61, "unit": "nM"}]}]}
